Patent publication US20230165980A1, “METHODS FOR RADIOLABELING PSMA BINDING LIGANDS AND THEIR KITS” (Novartis AG, priority 2020, published 2023)

Assay: API assay stability of the freeze dried kit (external calibration curve)
Format: physicochemical
Conditions: final formulation kit
Procedure: Stability tests were performed on the freeze dried product containing the final formulation. […] Kits manufactured with the final formulation, indeed, were stored at different stability conditions (2-8° C.; 25° C. and 40° C.) and were tested at different time points for API-assay, Radiochemical Purity and Radiochemical Stability of the radiolabelled product. Radiochemical Purity and Stability were assessed only eluting IRE Generator which represented the most stressful condition in terms of Radioactive Concentration (Volumic Activity).

O=C(O)CCc1ccc(O)c(CN(CCN(CC(=O)O)Cc2cc(CCC(=O)NCCCCCC(=O)NCCCC[C@H](NC(=O)N[C@@H](CCC(=O)O)C(=O)O)C(=O)O)ccc2O)CC(=O)O)c1 [PSMA-11]
API quantitation, 1. injection (3 months at 2-8° C.): 28.87 µg
API quantitation, 2. injection (3 months at 2-8° C.): 29.21 µg
API quantitation, 3. injection (3 months at 2-8° C.): 28.44 µg
API quantitation, Average (3 months at 2-8° C.): 28.84 µg
API quantitation, 1. injection (3 months at 25° C.): 28.19 µg
API quantitation, 2. injection (3 months at 25° C.): 29.57 µg
API quantitation, 3. injection (3 months at 25° C.): 28.33 µg
API quantitation, Average (3 months at 25° C.): 28.70 µg
API quantitation, 1. injection (3 months at 40° C.): 28.17 µg
API quantitation, 2. injection (3 months at 40° C.): 28.05 µg
API quantitation, 3. injection (3 months at 40° C.): 28.06 µg
API quantitation, Average (3 months at 40° C.): 28.10 µg
API quantitation, 1. injection (6 months at 2-8° C.): 29.79 µg
API quantitation, 2. injection (6 months at 2-8° C.): 29.61 µg
API quantitation, 3. injection (6 months at 2-8° C.): 29.43 µg
API quantitation, Average (6 months at 2-8° C.): 29.61 µg
API quantitation, 1. injection (6 months at 25° C.): 29.35 µg
API quantitation, 2. injection (6 months at 25° C.): 29.31 µg
API quantitation, 3. injection (6 months at 25° C.): 29.06 µg
API quantitation, Average (6 months at 25° C.): 29.24 µg
API quantitation, 1. injection (6 months at 40° C.): 28.81 µg
API quantitation, 2. injection (6 months at 40° C.): 28.87 µg
API quantitation, 3. injection (6 months at 40° C.): 28.98 µg
API quantitation, Average (6 months at 40° C.): 28.89 µg
API quantitation, 1. injection (Release (Manufacturing date)): 28.31 µg
API quantitation, 2. injection (Release (Manufacturing date)): 28.76 µg
API quantitation, 3. injection (Release (Manufacturing date)): 27.40 µg
API quantitation, Average (Release (Manufacturing date)): 28.15 µg
